Laboratory results taken from patent US6647980B1, “Method for administration of active substances to the olfactory region” (priority 1997, dated 2003).

Assay: Dynamic viscosity, Brookfield Digital Viscometer
Format: physicochemical
Details: dye preparation
Protocol: The viscosity of the preparations were determined by means of a Brookfield Digital Viscometer, model DV-I+, version 2.0, at 25° after stabilisation for 30 min.

- Viscosity (cP) (NaCMC conc. 0 (water)): 1 (water) cP
- Viscosity (cP) (NaCMC conc. 0.2 (w/v), with Tween 40 and methyl paraoxybenzoate): 22.0 cP
- Viscosity (cP) (NaCMC conc. 0.5 (w/v), with Tween 40 and methyl paraoxybenzoate): 85.2 cP
Substance: brilliant blue dye
